From US9328138B2 (priority 2011, dated 2016)
Counter-ions that a name gives are not always drawn.

What was measured:
[1] = target: T1, HCV genotype 1b (BK) NS3 modified enzyme with a R155K mutation (Hepatitis C virus genotype 1b, UniProt P26663, R1181K); test: HCV NS3 protease time-resolved fluorescence (TRF) assay, genotype 1b R155K; assay type: biochemical; details: Ki 1b R155K
T1 construct: HCV genotype 1b (BK) NS3 modified enzyme
In short: (§1)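 Inhibitor titrations are mixed with NS3/NS4A in pH 7.5 HEPES buffer containing 10 mM DTT and 15% glycerol for 10 min before substrate (25 nM final) is added. After 6 h at room temperature, delayed fluorescence is read and fitted to a four-parameter curve for IC50.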

[2] = target: HCV NS3 protease genotype 3a (3A-1) (Hepatitis C virus genotype 3a, UniProt Q81258); test: HCV NS3 protease time-resolved fluorescence (TRF) assay, genotype 3a; assay type: biochemical; details: Ki 3a
In short: as §1

[3] = first of two values printed in the cell (not explained)
[4] = second of two values printed in the cell (not explained)

| Structure (SMILES) | Ki [1, 3] [nM] | Ki [1, 4] [nM] | Ki [2] [nM] |
| --- | --- | --- | --- |
| C=C[C@@H]1C[C@]1(NC(=O)[C@@H]1C[C@@H]2CN1C(=O)[C@H](C1(C)CCCCC1)NC(=O)O[C@@H]1C[C@H]1CCCCCc1c(nc3ccccc3c1OCCCN1CCCOCC1)O2)C(=O)NS(=O)(=O)C1(C)CC1 [Example 270, (1aR,5S,8S,10R,22aR)—N-[(1R,2S)-2-ethenyl-1-{[(1-methylcyclopropyl)sulfonyl]carbamoyl}cyclopropyl]-5-(1-methylcyclohexyl)-17-[3-(1,4-oxazepan-4-yl)propoxy]-3,6-dioxo-1,1a,3,4,5,6,9,10,18,19,20,21,22,22a-tetradecahydro-8H-7,10-methanocyclopropa[18,19][1,10,3,6]dioxadiazacyclononadecino[11,12-b]quinoline-8-carboxamide] | 0.021 | 0.18 | 1.4 |
| C=C[C@@H]1C[C@]1(NC(=O)[C@@H]1C[C@@H]2CN1C(=O)[C@H](C1CCCCC1)NC(=O)O[C@@H]1C[C@H]1CCCCCc1c(nc3ccccc3c1OC1CCN(CCS(C)(=O)=O)CC1)O2)C(=O)NS(=O)(=O)C1(C)CC1 [Example 271, (1aR,5S,8S,10R,22aR)-5-cyclohexyl-N-[(1R,2S)-2-ethenyl-1-{[(1-methylcyclopropyl)sulfonyl]carbamoyl}cyclopropyl]-17-({1-[2-(methylsulfonyl)ethyl]piperidin-4-yl}oxy)-3,6-dioxo-1,1a,3,4,5,6,9,10,18,19,20,21,22,22a-tetradecahydro-8H-7,10-methanocyclopropa[18,19][1,10,3,6]dioxadiazacyclononadecino[11,12-b]quinoline-8-carboxamide] | 0.023 | 0.215 | 5.2 |
| C=C[C@@H]1C[C@]1(NC(=O)[C@@H]1C[C@@H]2CN1C(=O)[C@H](C1CCCCC1)NC(=O)O[C@@H]1C[C@H]1CCCCCc1c(nc3ccccc3c1OC1CCN(CCF)CC1)O2)C(=O)NS(=O)(=O)C1(C)CC1 [Example 272, 4-{[(1aR,5S,8S,10R,22aR)-5-cyclohexyl-8-{[(1R,2S)-2-ethenyl-1-{[(1-methylcyclopropyl)sulfonyl]carbamoyl}cyclopropyl]carbamoyl}-3,6-dioxo-1,1a,3,4,5,6,9,10,18,19,20,21,22,22a-tetradecahydro-8H-7,10-methanocyclopropa[18,19][1,10,3,6]dioxadiazacyclononadecino[11,12-b]quinolin-17-yl]oxy}-1-(2-fluoroethyl)piperidinium formate] | 0.015 | 0.128 | 2.12 |
| C=C[C@@H]1C[C@]1(NC(=O)[C@@H]1C[C@@H]2CN1C(=O)[C@H](C(C)(C)C)NC(=O)O[C@@H]1C[C@H]1CCCCCc1c(nc3ccccc3c1OC1CC3CCC(C1)N3CC(F)(F)F)O2)C(=O)NS(=O)(=O)C1(C)CC1 (stereo partly drawn) [Example 275, potassium {[(1R,2S)-1-({[(1aR,5S,8S,10R,22aR)-5-tert-butyl-3,6-dioxo-17-{[8-(2,2,2-trifluoroethyl)-8-azabicyclo[3.2.1]oct-3-yl]oxy}-1,1a,3,4,5,6,9,10,18,19,20,21,22,22a-tetradecahydro-8H-7,10-methanocyclopropa[18,19][1,10,3,6]dioxadiazacyclononadecino[11,12-b]quinolin-8-yl]carbonyl}amino)-2-ethenylcyclopropyl]carbonyl}[(1-methylcyclopropyl)sulfonyl]azanide] | 0.11 | 1.15 | 16 |
| C=C[C@@H]1C[C@]1(NC(=O)[C@@H]1C[C@@H]2CN1C(=O)[C@H](C1CCCCC1)NC(=O)O[C@@H]1C[C@H]1CCCCCc1c(nc3ccccc3c1OC1CC3CCC(C1)N3C(=O)OC(C)(C)C)O2)C(=O)NS(=O)(=O)C1(C)CC1 (stereo partly drawn) [Example 282, tert-butyl 3-{[(1aR,5S,8S,10R,22aR)-5-cyclohexyl-8-{[(1R,2S)-2-ethenyl-1-{[(1-methylcyclopropyl)sulfonyl]carbamoyl}cyclopropyl]carbamoyl}-3,6-dioxo-1,1a,3,4,5,6,9,10,18,19,20,21,22,22a-tetradecahydro-8H-7,10-methanocyclopropa[18,19][1,10,3,6]dioxadiazacyclononadecino[11,12-b]quinolin-17-yl]oxy}-8-azabicyclo[3.2.1]octane-8-carboxylate] | 0.14 | 5.3 | 140 |
| C=C[C@@H]1C[C@]1(NC(=O)[C@@H]1C[C@@H]2CN1C(=O)[C@H](C1CCCCC1)NC(=O)O[C@@H]1C[C@H]1CCCCCc1c(nc3ccccc3c1OC1CC3CCC(C1)N3)O2)C(=O)NS(=O)(=O)C1(C)CC1 (stereo partly drawn) [Example 283, potassium {[(1R,2S)-1-({[(1aR,5S,8S,10R,22aR)-17-(8-azabicyclo[3.2.1]oct-3-yloxy)-5-cyclohexyl-3,6-dioxo-1,1a,3,4,5,6,9,10,18,19,20,21,22,22a-tetradecahydro-8H-7,10-methanocyclopropa[18,19][1,10,3,6]dioxadiazacyclononadecino[11,12-b]quinolin-8-yl]carbonyl}amino)-2-ethenylcyclopropyl]carbonyl}[(1-methylcyclopropyl)sulfonyl]azanide] | 0.014 | 0.022 | 0.108 |
| C=C[C@@H]1C[C@]1(NC(=O)[C@@H]1C[C@@H]2CN1C(=O)[C@H](C1CCCCC1)NC(=O)O[C@@H]1C[C@H]1CCCCCc1c(nc3ccccc3c1OC1CC3CCC(C1)N3CCOC)O2)C(=O)NS(=O)(=O)C1(C)CC1 (stereo partly drawn) [Example 284, (1aR,5S,8S,10R,22aR)-5-cyclohexyl-N-[(1R,2S)-2-ethenyl-1-{[(1-methylcyclopropyl)sulfonyl]carbamoyl}cyclopropyl]-17-{[8-(2-methoxyethyl)-8-azabicyclo[3.2.1]oct-3-yl]oxy}-3,6-dioxo-1,1a,3,4,5,6,9,10,18,19,20,21,22,22a-tetradecahydro-8H-7,10-methanocyclopropa[18,19][1,10,3,6]dioxadiazacyclononadecino[11,12-b]quinoline-8-carboxamide] | 0.023 | 0.053 | 0.28 |
| C=C[C@@H]1C[C@]1(NC(=O)[C@@H]1C[C@@H]2CN1C(=O)[C@H](C1CCCCC1)NC(=O)O[C@@H]1C[C@H]1CCCCCc1c(nc3c(F)cccc3c1OC1CCN(C)CC1)O2)C(=O)NS(=O)(=O)C1(C)CC1 [Example 286, (1aR,5S,8S,10R,22aR)-5-cyclohexyl-N-[(1R,2S)-2-ethenyl-1-{[(1-methylcyclopropyl)sulfonyl]carbamoyl}cyclopropyl]-13-fluoro-17-[(1-methylpiperidin-4-yl)oxy]-3,6-dioxo-1,1a,3,4,5,6,9,10,18,19,20,21,22,22a-tetradecahydro-8H-7,10-methanocyclopropa[18,19][1,10,3,6]dioxadiazacyclononadecino[11,12-b]quinoline-8-carboxamide] | 0.022 | 0.094 | 0.515 |
| C=C[C@@H]1C[C@]1(NC(=O)[C@@H]1C[C@@H]2CN1C(=O)[C@H](C1CCCCC1)NC(=O)O[C@@H]1C[C@H]1CCCCCc1c(nc3ccccc3c1OC1CC3COCC(C1)N3C(=O)OC(C)(C)C)O2)C(=O)NS(=O)(=O)C1(C)CC1 (stereo partly drawn) [Example 287, tert-butyl 7-{[(1aR,5S,8S,10R,22aR)-5-cyclohexyl-8-{[(1R,2S)-2-ethenyl-1-{[(1-methylcyclopropyl)sulfonyl]carbamoyl}cyclopropyl]carbamoyl}-3,6-dioxo-1,1a,3,4,5,6,9,10,18,19,20,21,22,22a-tetradecahydro-8H-7,10-methanocyclopropa[18,19][1,10,3,6]dioxadiazacyclononadecino[11,12-b]quinolin-17-yl]oxy}-3-oxa-9-azabicyclo[3.3.1]nonane-9-carboxylate] | 0.092 | 2.55 | 58 |
| C=C[C@@H]1C[C@]1(NC(=O)[C@@H]1C[C@@H]2CN1C(=O)[C@H](C1CCCCC1)NC(=O)O[C@@H]1C[C@H]1CCCCCc1c(nc3ccccc3c1OC1CC3COCC(C1)N3)O2)C(=O)NS(=O)(=O)C1(C)CC1 (stereo partly drawn) [Example 288, (1aR,5S,8S,10R,22aR)-5-cyclohexyl-N-[(1R,2S)-2-ethenyl-1-{[(1-methylcyclopropyl)sulfonyl]carbamoyl}cyclopropyl]-17-(3-oxa-9-azabicyclo[3.3.1]non-7-yloxy)-3,6-dioxo-1,1a,3,4,5,6,9,10,18,19,20,21,22,22a-tetradecahydro-8H-7,10-methanocyclopropa[18,19][1,10,3,6]dioxadiazacyclononadecino[11,12-b]quinoline-8-carboxamide] | 0.018 | 0.05 | 0.224 |
| C=C[C@@H]1C[C@]1(NC(=O)[C@@H]1C[C@@H]2CN1C(=O)[C@H](C1CCCCC1)NC(=O)O[C@@H]1C[C@H]1CCCCCc1c(nc3ccccc3c1OC1CC3COCC(C1)N3CCOC)O2)C(=O)NS(=O)(=O)C1(C)CC1 (stereo partly drawn) [Example 289, (1aR,5S,8S,10R,22aR)-5-cyclohexyl-N-[(1R,2S)-2-ethenyl-1-{[(1-methylcyclopropyl)sulfonyl]carbamoyl}cyclopropyl]-17-{[9-(2-methoxyethyl)-3-oxa-9-azabicyclo[3.3.1]non-7-yl]oxy}-3,6-dioxo-1,1a,3,4,5,6,9,10,18,19,20,21,22,22a-tetradecahydro-8H-7,10-methanocyclopropa[18,19][1,10,3,6]dioxadiazacyclononadecino[11,12-b]quinoline-8-carboxamide] | 0.03 | 0.197 | 3.27 |
